The values that follow come from US8609644B2, “Amino derivatives of androstanes and androstenes as medicaments for cardiovascular disorders” (priority 2006, dated 2013).

One data set deals with Na+, K+-ATPase (Canis lupus familiaris, UniProt P50997). The data set is described as follows: biochemical. Set-up: species or system dog.
The subject of another data set is anesthetized guinea-pig. Put plainly: Inotropic effect and lethal dose, slow intravenous infusion (over 90 minutes) in anesthetized guinea-pig. The conditions noted are these: for ED80 / ED (max) / Emax: Cavia porcellus, iv, 1.5 h; for ED80: read-out: ED80 (inotropic potency, dose increasing +dP/dTmax by 80%); for ED (max): read-out: EDmax (dose inducing maximum positive inotropic effect); for Emax: read-out: Emax % increase in +dP/dTmax; for Maximum dose infused: maximum dose infused in the survived animals.

[1] abbreviates: read-out: Na+, K+-ATPase Inhibition IC50.
Setting [2] is: dog kidney enzyme, read-out: Na+, K+-ATPase Inhibition IC50.

Counter-ions that a name gives are not always drawn. Like-named read-outs stand apart in the source and are kept apart here.

Regarding `CNCCON=C1CC[C@@]2(C)C(C1)C(=NOC)C[C@@H]1[C@@H]2CC[C@]2(C)C(=O)CC[C@@H]12` (stereo partly shown) [I-ce, (E,Z) 3-(2-N-Methylaminoethoxyimino)-6-(E)-methoxyiminoandrostan-17-one hydrochloride], the half-maximal inhibitory concentration (IC50) on Na+, K+-ATPase (setting [1]) stood at 650 nM.
Take `CNCCCON=C1CC[C@]2(C)[C@H]3CC[C@]4(C)C(=O)CC[C@H]4[C@@H]3C/C(=N\O)[C@@]2(O)C1` (mixture of isomers) [I-cr, (E,Z) 3-(3-N-Methylaminopropoxyimino)-5α-hydroxy-6-(E)-hydroxyiminoandrostan-17-one hydrochloride]: in the data set on anesthetized guinea-pig, the ED80 is 1.21 µmol/kg, the ED (max) is 11.8 µmol/kg, the Emax was 180% and the Maximum dose infused was found to be 50.4 µmol/kg. For the same compound, the “% decrease from Emax after 20 min from the end of the infusion” value with anesthetized guinea-pig (duration of the inotropic effect) is reported as 47%.
For the compound `CNCCCON=C1CC[C@@]2(C)[C@H](C1)[C@@H](C(N)=O)C[C@@H]1[C@@H]2CC[C@]2(C)C(=O)CC[C@@H]12` (mixture of isomers) [I-cn, (Z,E) 3-(3-N-Methylaminopropoxyimino)-6α-carbamoylandrostan-17-one hydrochloride], at Na+, K+-ATPase (setting [2]), the IC50 is 1900 nM.
Consider `CC12CCC3C(C(=O)C(CO)C4CC(=NOCCN)CCC43C)C1CCC2=O` (mixture of isomers) [I-cd, (E,Z) 3-(2-Aminoethoxyimino)-6α-hydroxymethylandrostane-7,17-dione hydrochloride], for which the IC50 on Na+, K+-ATPase (setting [2]) was 12 nM.
Same read-out and setting: in the case of `CC12CCC3C(CC(C(=O)O)C4CC(=NOCCN)CCC43C)C1CCC2=O` (mixture of isomers) [I-ar, (E,Z) 3-(2-Aminoethoxyimino)-6α-carboxyandrostan-17-one hydrochloride] it was 16000 nM.
Regarding `C[C@]12CC[C@@H](/C=C\CCCCN)CC1/C(=N/O)C[C@@H]1[C@@H]2CC[C@]2(C)C(=O)CC[C@@H]12` (stereo partly drawn) [I-dj, 3α-(6-Aminohex-1-(Z)-enyl)-6-(E)-hydroxyiminoandrostan-17-one fumarate], the IC50 at Na+, K+-ATPase (setting [1]) turned out to be 1300 nM.
The compound `C=C1C[C@H]2[C@@H]3CCC(=O)[C@@]3(C)CC[C@@H]2[C@@]2(C)CCC(=NOCCNC)C[C@]12O` (mixture of isomers) [I-cg, (E,Z) 3-(2-N-Methylaminoethoxyimino)-5α-hydroxy-6-methylenandrostan-17-one hydrochloride] yielded a concentration for half-maximal inhibition (IC50) against Na+, K+-ATPase (Na+, K+-ATPase Inhibition IC50) of 2600 nM.
As to `CNCCCON=C1CC[C@@]2(C)[C@H](C1)C[C@H](CO)[C@@H]1[C@@H]2CC[C@]2(C)C(=O)CC[C@@H]12` (mixture of isomers) [I-cw, (E,Z) 3-(3-N-Methylaminopropoxyimino)-7β-hydroxymethylandrostane-17-one hydrochloride], the half-inhibitory concentration (IC50) at Na+, K+-ATPase (setting [2]) was 2300 nM.
Turning to `C=C1C[C@@H]2[C@H](CC[C@]3(C)C(=O)CC[C@@H]23)[C@@]2(C)CC[C@@H]([S@+]([O-])CCCN)CC12` (stereo partly drawn) [I-ec, 3α-[(R)-3-Aminopropylsulfinyl]-6-methyleneandrostane-17-one fumarate], the IC50 at Na+, K+-ATPase (setting [1]) is 80000 nM.
Turning to `CC12CCC3C(CC(O[N+](=O)[O-])C4CC(=NOCCN)CCC43C)C1CCC2=O` (single isomer, unassigned) [I-ab, (E,Z) 3-(2-Aminoethoxyimino)-17-oxoandrostane-6β-yl nitrate fumarate], the IC50 on Na+, K+-ATPase (setting [2]) was found to be 2900 nM.
The same measure, in the same setting: the same measure for `C[C@]12CC[C@H]3[C@@H](C[C@@H](C#N)[C@@]4(O)CC(=NOCCN)CC[C@]34C)[C@@H]1CCC2=O` (mixture of isomers) [I-ae, (E,Z) 3-(2-Aminoethoxyimino)-5α-hydroxy-6β-cyanoandrostane-17-one fumarate]: 11000 nM.
Regarding `CNCCCON=C1CC[C@]2(C)[C@H]3CC[C@]4(C)C(=O)CC[C@H]4[C@@H]3CC(=NOC)[C@@]2(O)C1` [I-cs, (E,Z) 3-(3-N-Methylaminopropoxyimino)-5α-hydroxy-6-(E)-methoxyimino-androstane-17-one fumarate], the IC50 on Na+, K+-ATPase (setting [1]) was found to be 1100 nM.
For the compound `C/C=C1\C[C@@H]2[C@H](CC[C@]3(C)C(=O)CC[C@@H]23)[C@@]2(C)CCC(=NOCCN)C[C@H]12` (mixture of isomers) [I-bg, (E,Z) 3-(2-Aminoethoxyimino)-6-(E)-ethylidenandrostan-17-one hydrochloride], the IC50 at Na+, K+-ATPase (Na+, K+-ATPase Inhibition IC50) was 1100 nM.
On to `CC(=O)N[C@H]1C[C@@H]2[C@H](CC[C@]3(C)C(=O)CC[C@@H]23)[C@@]2(C)CCC(=NOCCN)C[C@H]12` (mixture of isomers) [I-bf, (E,Z) 3-(2-Aminoethoxyimino)-6α-acetamidoandrostan-17-one hydrochloride], for which, at Na+, K+-ATPase (setting [2]), the IC50 came to 45000 nM.
For `C=C1C[C@@H]2[C@H](CC[C@]3(C)C(=O)CC[C@@H]23)[C@@]2(C)CC[C@@H]([S@@+]([O-])CCCN)CC12` (stereo partly drawn) [I-eb, 3α-[(S)-3-Aminopropylsulfinyl]-6-methyleneandrostane-17-one fumarate], the IC50 on Na+, K+-ATPase (setting [1]) is 7200 nM.
The same measure, in the same setting: the same measure for `CNCCCON=C1CC[C@@]2(C)C(C1)[C@@H](CO)C(=O)[C@@H]1[C@@H]2CC[C@]2(C)C(=O)CC[C@@H]12` (stereo partly drawn) [I-ei, (E,Z) 3-(3-N-Methylaminopropoxyimino)-6α-hydroxymethylandrostane-7,17-dione fumarate]: 44 nM.
For `C=C1CC2CC(=NOCCN)CCC2(C)C2CCC3(C)C(=O)CCC3C12` (mixture of isomers) [I-bx, (E,Z) 3-(2-Aminoethoxyimino)-7-methyleneandrostane-17-one hydrochloride], the IC50 against Na+, K+-ATPase (Na+, K+-ATPase Inhibition IC50) came to 400 nM.
For the compound `CNCCCON=C1CCC2(C)C(CC(=O)C3C4CCC(=O)C4(C)CCC32)C1` (mixture of isomers) [I-cu, (E,Z) 3-(3-N-Methylaminopropoxyimino)androstane-7,17-dione fumarate], at Na+, K+-ATPase (Na+, K+-ATPase Inhibition IC50), half-maximal inhibition (IC50) was put at 390 nM.
As to `C=C1C[C@@H]2[C@H](CC[C@]3(C)C(=O)CC[C@@H]23)[C@@]2(C)CC/C(=N\OCCCNC)C[C@H]12` [I-cj, (E) 3-(3-N-Methylaminopropoxyimino)-6-methyleneandrostan-17-one fumarate], the IC50 against Na+, K+-ATPase (Na+, K+-ATPase Inhibition IC50) came out at 380 nM.
As to `COCC1CC2CC(=NOCCN)CCC2(C)C2CCC3(C)C(=O)CCC3C12` (mixture of isomers) [I-ed, (E,Z) 3-(2-Aminoethoxyimino)-7α-methoxymethylandrostane-17-one hydrochloride], the IC50 on Na+, K+-ATPase (setting [2]) is 38000 nM.
`C[C@H]1C[C@H]2CC(=NOCCN)CC[C@]2(C)[C@H]2CC[C@]3(C)C(=O)CC[C@H]3[C@H]12` (mixture of isomers) [I-by, (E,Z) 3-(2-Aminoethoxyimino)-7β-methylandrostane-17-dione hydrochloride] gave a half-maximal inhibitory concentration (IC50) against Na+, K+-ATPase (Na+, K+-ATPase Inhibition IC50) of 640 nM.
On to `C=CCON=C1CC2CC(=NOCCN)CCC2(C)C2CCC3(C)C(=O)CCC3C12` (mixture of isomers) [I-bu, (E,Z)-3-(2-Aminoethoxyimino)-7-(E)-allyloxyiminoandrostan-17-one fumarate], for which the concentration for half-maximal inhibition (IC50) at Na+, K+-ATPase (setting [2]) is 3800 nM.
Still for that read-out and setting: the same measure for `C=C1C[C@@H]2[C@H](CC[C@]3(C)C(=O)CC[C@@H]23)[C@@]2(C)CC[C@@H](SCCCNC)C[C@H]12` [I-ea, 3α-(3-N-Methylaminopropylthio)-6-methyleneandrostane-17-one fumarate]: 2800 nM.
As for `C[C@]12CC[C@H](/C=C\CCN)CC1/C(=N/O)C[C@@H]1[C@@H]2CC[C@]2(C)C(=O)CC[C@@H]12` (stereo partly drawn) [I-de, 3β-(4-Aminobut-1-(Z)-enyl)-6-(E)-hydroxyiminoandrostane-17-one fumarate], the IC50 on Na+, K+-ATPase (setting [1]) was determined as 1200 nM.
With `C[C@]12CCC(=NOCCN)CC1C1(CC1)C[C@@H]1[C@@H]2CC[C@]2(C)C(=O)CC[C@@H]12` (stereo partly shown) [I-bl, E,Z) 3-(2-Aminoethoxyimino)-6-(spirocyclopropane)androstane-17-one hydrochloride], the IC50 on Na+, K+-ATPase (setting [1]) was determined as 850 nM.
On Na+, K+-ATPase (Na+, K+-ATPase Inhibition IC50), `C=CC1CC2C3CCC(=O)C3(C)CCC2C2(C)CCC(=NOCCN)CC12` (stereo not drawn) [I-al, (E,Z) 3-(2-Aminoethoxyimino)-6α-vinylandrostan-17-one hydrochloride] displayed an IC50 of 530 nM.
Still for that read-out and setting: the same measure for `CC12CCC3C(C(=C(F)F)CC4CC(=NOCCN)CCC43C)C1CCC2=O` (mixture of isomers) [I-ep, (E,Z) 3-(2-Aminoethoxyimino)-7-difluoromethyleneandrostane-17-one hydrochloride]: 87 nM.
As for `C[C@]12CCC(=NOCCN)CC1C[C@H](CO)[C@@H]1[C@@H]2CC[C@]2(C)C(=O)CC[C@@H]12` (stereo partly drawn) [I-ca, (E,Z) 3-(2-Aminoethoxyimino)-7β-hydroxymethylandrostane-17-one hydrochloride], the IC50 at Na+, K+-ATPase (setting [1]) turned out to be 910 nM.
Same read-out and setting: the same measure for “3α-(3-Aminopropylthio)-6-(E)-hydroxyiminoandrostane-17-one hemifumarate [I-dw]”: 850 nM.
For the compound `CC12CCC3C(CC(CNC=O)C4CC(=NOCCN)CCC43C)C1CCC2=O` (mixture of isomers) [I-bn, (E,Z) 3-(2-Aminoethoxyimino)-6α-formamidomethylandrostane-17-one hydrochloride], the IC50 on Na+, K+-ATPase (setting [2]) turned out to be 5100 nM.
For the compound `COC(=O)C1CC2C3CCC(=O)C3(C)CCC2C2(C)CCC(=NOCCN)CC12` (mixture of isomers) [I-au, (E,Z) 3-(2-Aminoethoxyimino)-6α-methoxycarbonylandrostan-17-one hydrochloride], the IC50 at Na+, K+-ATPase (setting [2]) is 410 nM.
For `CC(=O)OCC1CC2C3CCC(=O)C3(C)CCC2C2(C)CCC(=NOCCN)CC12` (stereo not drawn) [I-ap, (E,Z) 3-(2-Aminoethoxyimino)-6α-acetoxymethylandrostan-17-one fumarate], on Na+, K+-ATPase (setting [2]), the IC50 was 3000 nM.
For `C[C@H]1O[C@@H](O[C@H]2[C@@H](O)C[C@H](O[C@H]3[C@@H](O)C[C@H](O[C@H]4CC[C@@]5(C)[C@H](CC[C@@H]6[C@@H]5C[C@@H](O)[C@]5(C)[C@@H](C7=CC(=O)OC7)CC[C@]65O)C4)O[C@@H]3C)O[C@@H]2C)C[C@H](O)[C@@H]1O` [digoxin, reference compound], in the data set with anesthetized guinea-pig, the ED80 was 0.29 µmol/kg, the ED (max) came to 0.65 µmol/kg, the Emax was 158% and the Maximum dose infused came to 1.16 µmol/kg.
